Measured values as given in US8226976B2, “Method of using cell-free protein synthesis to produce a membrane protein” (Riken, priority 2007, dated 2012).

What was measured:
[1] = in water; cited from earlier work
[2] = test system: cell-free protein synthesis system (S30 extract); experiment: cell-free synthesis of BR by the dialysis method with the cholate concentration kept constant; assay type: biochemical, E. coli; settings: 1% sodium cholate added to internal and external dialysis solutions; FIG. 2, Lanes 3, 4
Protocol: A protein synthesis reaction was performed as follows: an internal solution of the composition as shown in table 1 as mentioned below was supplied with 100 μM all-trans retinal at final concentration (Sigma), 9 μg of synthetic plasmid as necessary, a predetermined concentration of a detergent, and 6 mg of egg yolk phosphatidylcholine (Type XVI-E, Sigma) to prepare a reaction solution, 0.9 ml of which was poured into a dialysis membrane (Spectra/Por 7, Molecular Weight Cut Off: 15000, Spectrum). The synthesis reaction was performed at 30° C. for 6 h during dialysis which was to 10 times volume of external solution (9 mL) in a 15 mL conical tube by rotary shaking with a rotary shaker (RT-50, TAITEC). […]
After termination of the synthesis reaction, the reaction internal solution was centrifuged at 15000 rpm for 10 min. […] Scatter correction was performed by subjecting the determined scores from 680 nm to 750 nm to linear regression to subtract from the measured spectrums. The amount of an active BR was calculated from the score of the spectrum of 560 nm as subjected to the scatter correction using the molar absorption coefficient: 42000 and the molecular weight: 31.4 k. […]

| SMILES | critical micelle concentration (cmc) [1] | synthesis of BR (effect of inhibiting protein synthesis) [2] |
| --- | --- | --- |
| C[C@H](CCC(=O)NCCC[N+](C)(C)CCCS(=O)(=O)[O-])[C@H]1CC[C@H]2[C@@H]3[C@H](O)C[C@@H]4C[C@H](O)CC[C@]4(C)[C@H]3C[C@H](O)[C@]12C [CHAPS, 3-[(3-cholamidepropyl)dimethylammonio]-1-propanesulfonate] | 0.49 % (w/v) |  |
| C[C@@H]1CC[C@@]2(OC1)O[C@H]1[C@@H](O)[C@H]3[C@@H]4CC[C@H]5C[C@@H](O[C@@H]6O[C@H](CO)[C@H](O[C@@H]7O[C@H](CO)[C@@H](O)[C@H](O[C@@H]8OC[C@@H](O)[C@H](O)[C@H]8O)[C@H]7O[C@@H]7O[C@H](CO)[C@H](O)[C@H](O[C@@H]8O[C@H](CO)[C@@H](O)[C@H](O)[C@H]8O)[C@H]7O)[C@H](O)[C@H]6O)[C@H](O)C[C@]5(C)[C@H]4CC[C@]3(C)[C@H]1[C@@H]2C [digitonin] | 0.06 % (w/v) |  |
| C[C@H](CCC(=O)[O-])[C@H]1CC[C@H]2[C@@H]3[C@H](O)C[C@@H]4C[C@H](O)CC[C@]4(C)[C@H]3C[C@H](O)[C@]12C.[Na+] [sodium cholate] | 0.41 % (w/v) | synthesis of BR was not found |
